Numbered stars: 1 amine (or outer) side, 2 acyl side, 3 side chain; on linkers, the order of the positions; unused ones are H or OH. Bridge positions count the residues as written; N and C are the ends. Ends that are not written are not given here. Peptide text beside a SMILES is read from it. * marks the point of attachment. FITC = O=C1OC2(c3ccc(O)cc3Oc3cc(O)ccc32)c2ccc(NC(=S)*)cc21; X1 = O=C(C[*:2])Nc1cc(NC(=O)C[*:3])cc(C(=O)[*:1])c1; AEEA = NCCOCCOCC(=O)O

Assay [1] has as its system AGS cells. The assay is described as follows: Cell viability assay. It counts as cell-based. To be noted: 24 hours.
Assay [2] has as its target TEAD4 (Homo sapiens, UniProt Q15561). The assay is described as follows: Fluorescence polarization binding assay of FAM/FITC-labelled peptides to TEAD4. On the technique in general: Fluorescence polarisation rises when a labelled molecule tumbles more slowly, as on binding a larger partner.

Sequence of TEAD4 (Q15561 210-434): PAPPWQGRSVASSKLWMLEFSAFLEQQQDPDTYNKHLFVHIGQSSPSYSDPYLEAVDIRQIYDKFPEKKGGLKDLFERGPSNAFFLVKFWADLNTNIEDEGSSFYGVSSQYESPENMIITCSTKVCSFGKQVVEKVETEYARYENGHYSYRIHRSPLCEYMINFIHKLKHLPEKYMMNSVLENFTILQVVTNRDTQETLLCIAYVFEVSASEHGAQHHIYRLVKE

Regarding `CC(=O)N[C@@H](CC(C)C)C(=O)N1CCC[C@H]1C(=O)N[C@H]1CCCCNC(=O)c2cc3cc(c2)NC(=O)CSC[C@H](NC(=O)[C@H](CO)NC(=O)[C@H](C(C)C)NC(=O)[C@H](Cc2c[nH]c4ccccc24)NC(=O)[C@H](CO)NC(=O)[C@H]([C@@H](C)O)NC(=O)[C@H](CC(C)C)NC(=O)CNC(=O)[C@H]([C@@H](C)O)NC1=O)C(=O)N[C@@H](Cc1c[nH]cn1)C(=O)N[C@@H](Cc1ccccc1)C(=O)N[C@@H](CC(C)C)C(=O)N[C@@H](CCCNC(=N)N)C(=O)N[C@@H](CO)C(=O)N[C@@H](CC(C)C)C(=O)N[C@H](C(=O)NCC(=O)NCC(=O)N[C@@H](CO)C(=O)NCC(N)=O)CSCC(=O)N3` [compound 16] (Ac-LPKTGLTSWVSCHFLRSLCGGSG-NH2; linker 3-12-19 via X1), the “inhibitory activity on AGS cells” value in assay [1] (at 10 μM, in presence of PDPA nanocarrier) is reported as “little inhibitory inhibition”. As a reminder, the Kd is the equilibrium constant for the complex coming apart. A low value points to higher affinity. Regarding `CC(C)C[C@H](NC(=O)[C@H](CO)NC(=O)[C@H](Cc1ccccc1)NC(=O)[C@H](CC(=O)O)NC(=O)[C@H](Cc1c[nH]c2ccccc12)NC(=O)[C@H](Cc1ccccc1)NC(=O)[C@H](CO)NC(=O)[C@H](CCCCN)NC(=O)[C@@H]1CCCN1C(=O)[C@H](Cc1c[nH]c2ccccc12)NC(=O)[C@H](CCC(N)=O)NC(=O)CNC(=O)[C@@H](NC(=O)[C@H](CCCCN)NC(=O)[C@@H]1CCCN1C(=O)[C@H](CC(C)C)NC(=O)COCCOCCNC(=S)Nc1ccc2c(c1)C(=O)OC21c2ccc(O)cc2Oc2cc(O)ccc21)[C@@H](C)O)C(=O)NCC(=O)N[C@@H](CS)C(=O)NCC(=O)NCC(=O)N[C@@H](CO)C(=O)NCC(N)=O` [linear version of 15] ({FITC-AEEA}-LPKTGQWPKSFWDFSLGCGGSG-NH2; N-terminus and C-terminus assumed), binding in assay [2] was put at a Kd of 6.3 µM. By EC50 is commonly meant the concentration that produces a half-maximal response. Regarding “PKKKRKVDPKKKRKVDPKKKRKVNGLPKTGLTSWVSCHFLRSLCGGSG-NH2 (linker 28-37-44 via X1; C-terminus assumed) [16-NLS]”, in assay [1] (read-out: cellular inhibitory activity EC50, AGS cells), the EC50 came to 8.3 µM.

The record behind these values is article PMC11206207 (Chemical Science, 2024).
